Reference: ChEMBL document CHEMBL5724796, “Tm Shift (DSF) assay results for EUbOPEN Chemogenomics Library” (2024)
Non-standard residues stand in square brackets, D forms with d. Residues, ends and D or L forms follow the SMILES beside them. *: point of attachment. Tyr(3-Cl) = N[C@@H](Cc1ccc(O)c(Cl)c1)C(=O)O; Benzoyl(3,5-Cl2) = O=C(c1cc(Cl)cc(Cl)c1)*; Lys(Et2) = CCN(CC)CCCC[C@H](N)C(=O)O; Gly(cPent) = N[C@H](C(=O)O)C1CCCC1; NH(propargyl) = C#CCN*

Key:
Peregrin (Homo sapiens) = target: T1, Peregrin (Homo sapiens) (UniProt P55201); conditions: Compound concentration 20.0 uM
T1 sequence (whole entry): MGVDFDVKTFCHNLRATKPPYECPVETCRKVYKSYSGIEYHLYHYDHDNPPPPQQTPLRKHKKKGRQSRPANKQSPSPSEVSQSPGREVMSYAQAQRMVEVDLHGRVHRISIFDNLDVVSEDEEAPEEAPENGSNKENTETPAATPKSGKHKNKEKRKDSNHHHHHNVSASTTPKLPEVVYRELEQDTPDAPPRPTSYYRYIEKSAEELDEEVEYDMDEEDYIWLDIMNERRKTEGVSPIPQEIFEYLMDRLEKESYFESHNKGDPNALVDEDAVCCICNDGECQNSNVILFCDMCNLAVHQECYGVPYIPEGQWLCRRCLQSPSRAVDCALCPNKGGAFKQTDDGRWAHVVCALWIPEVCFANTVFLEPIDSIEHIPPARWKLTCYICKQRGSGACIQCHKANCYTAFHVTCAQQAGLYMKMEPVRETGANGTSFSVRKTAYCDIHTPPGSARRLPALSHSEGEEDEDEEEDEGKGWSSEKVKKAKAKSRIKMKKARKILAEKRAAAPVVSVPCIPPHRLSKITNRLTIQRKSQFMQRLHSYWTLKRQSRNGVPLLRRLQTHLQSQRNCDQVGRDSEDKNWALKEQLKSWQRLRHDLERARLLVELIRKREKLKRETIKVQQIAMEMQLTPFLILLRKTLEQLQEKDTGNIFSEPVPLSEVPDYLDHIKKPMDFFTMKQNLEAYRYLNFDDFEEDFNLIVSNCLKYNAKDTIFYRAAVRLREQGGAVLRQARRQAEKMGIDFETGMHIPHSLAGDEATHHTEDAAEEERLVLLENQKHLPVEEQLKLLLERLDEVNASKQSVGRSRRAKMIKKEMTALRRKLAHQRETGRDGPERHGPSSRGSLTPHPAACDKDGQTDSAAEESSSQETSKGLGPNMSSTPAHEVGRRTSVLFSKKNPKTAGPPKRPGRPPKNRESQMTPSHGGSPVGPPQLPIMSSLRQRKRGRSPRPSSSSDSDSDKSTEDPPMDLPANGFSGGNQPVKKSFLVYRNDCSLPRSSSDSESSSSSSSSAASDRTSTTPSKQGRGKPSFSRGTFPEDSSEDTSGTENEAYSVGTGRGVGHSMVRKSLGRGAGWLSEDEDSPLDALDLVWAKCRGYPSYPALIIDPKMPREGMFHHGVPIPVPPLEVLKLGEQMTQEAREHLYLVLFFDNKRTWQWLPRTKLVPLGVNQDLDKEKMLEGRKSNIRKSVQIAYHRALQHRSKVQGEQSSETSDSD

[1] = target: Fibroblast growth factor receptor 2 (Homo sapiens) (UniProt P21802); conditions: Compound concentration 20.0 uM
Chain of Fibroblast growth factor receptor 2 (Homo sapiens) (P21802 22-821 limits assumed): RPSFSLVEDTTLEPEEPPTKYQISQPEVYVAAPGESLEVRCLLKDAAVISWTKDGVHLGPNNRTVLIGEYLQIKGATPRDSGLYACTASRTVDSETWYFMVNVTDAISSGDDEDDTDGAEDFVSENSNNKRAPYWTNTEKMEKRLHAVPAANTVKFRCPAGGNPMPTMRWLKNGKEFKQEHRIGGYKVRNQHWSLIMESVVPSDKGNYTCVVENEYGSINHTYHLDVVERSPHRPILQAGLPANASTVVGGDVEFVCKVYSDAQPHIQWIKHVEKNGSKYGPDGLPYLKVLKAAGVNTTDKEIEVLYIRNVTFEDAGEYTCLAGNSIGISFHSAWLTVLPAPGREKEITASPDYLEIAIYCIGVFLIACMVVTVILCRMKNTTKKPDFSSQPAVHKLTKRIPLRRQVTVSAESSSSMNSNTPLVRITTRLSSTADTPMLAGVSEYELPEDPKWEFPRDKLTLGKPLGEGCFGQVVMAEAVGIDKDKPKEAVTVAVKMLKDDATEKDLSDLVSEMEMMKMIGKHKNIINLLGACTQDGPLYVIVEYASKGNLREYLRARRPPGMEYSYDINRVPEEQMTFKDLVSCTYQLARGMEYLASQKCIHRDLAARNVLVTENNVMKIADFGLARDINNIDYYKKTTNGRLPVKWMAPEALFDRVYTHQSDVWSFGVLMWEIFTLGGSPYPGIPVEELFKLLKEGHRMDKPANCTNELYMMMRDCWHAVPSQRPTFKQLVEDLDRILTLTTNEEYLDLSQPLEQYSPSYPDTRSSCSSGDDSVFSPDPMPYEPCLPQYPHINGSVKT
Description: Thermal Shift Assay. Domain: start/stop: T457-E768

Row | SMILES | ΔTm (Peregrin (Homo sapiens)) [°C] | ΔTm [1] [°C]
1 | CN1CC(=O)N2[C@H](c3ccc4c(c3)OCO4)c3[nH]c4ccccc4c3C[C@@H]2C1=O | 0.06 | -0.7
2 | CNC[C@@H](O)COc1ccc(Cl)c(-c2nc(-c3c(C)noc3C)c(C)c(N3CC4(CCN(C(=O)OC)CC4)C3)n2)c1 | -1.65 | 0.49
3 | N#Cc1ccc([C@H]2CCCC[C@H]2O)cc1C(F)(F)F | -0.66 | -0.09
4 | Nc1cccc(Nc2ncc(-c3ccc(Cl)cc3)o2)c1 | 4.7 | 2.1
5 | C#CCNC(=O)[C@H](CO)NC(=O)[C@H](CCCCN(CC)CC)NC(=O)[C@@H](NC(=O)[C@@H](NC(=O)[C@H](Cc1ccc(O)c(Cl)c1)NC(=O)c1cc(Cl)cc(Cl)c1)C1CCCC1)[C@@H](C)CC ({Benzoyl(3,5-Cl2)}-[Tyr(3-Cl)][Gly(cPent)]I[Lys(Et2)]S-{NH(propargyl)}) | 1.15 | -1.31
6 | O=c1[nH]ccc2cc(F)c(NS(=O)(=O)c3ccc(N4CC[C@@H](O)C4)s3)cc12 | -1.14 | 0.54
7 | CCC(CC)N(CCN(C)C(=O)CCC(=O)O)Cc1cccc(C(=O)Nc2sc3c(c2C(=O)c2cnn(-c4ccc(Cl)c(C(F)(F)F)c4)c2)CCC(C)(C)C3)c1 | -1.97 | -2.12
8 | O=C1/C(=N/Nc2ccc(S(=O)(=O)O)cc2)C(c2ccc([N+](=O)[O-])cc2)=NN1c1ccccc1 | 0.37 | 0.4
9 | COc1ccccc1[C@H]1[C@H](C(=O)O)[C@H](c2ccccc2OC)[C@H]1C(=O)Oc1cccc2ccccc12 | 0.27 | -0.72
10 | COc1cc(-c2cn(C)c(=O)c3cnccc23)cc(OC)c1CN(C)CC(=O)NCCOCCOCCNc1cccc2c1C(=O)N(C1CCC(=O)NC1=O)C2=O (stereo not drawn) | -0.56 | 0.52
11 | Cc1sc2c(c1C)C(c1ccc(Cl)cc1)=N[C@@H](CC(=O)OC(C)(C)C)c1nnc(C)n1-2 | -1.61 | 0.6
12 | N=C(N)SCc1ccc(CN2C(=O)C(=O)c3cc(Br)cc(Br)c32)cc1 | -6.38 | -6.45
13 | Cc1nccn1CC1CCc2c(c3ccccc3n2C)C1=O (stereo not drawn) | 0.91 | -0.16
14 | CCN(CC)c1ccc(C2=NNC(=O)C[C@H]2C)cc1[N+](=O)[O-] | 1.09 | 0.2
15 | CN(C(=O)CCCOc1ccc2[nH]c(=O)ccc2c1)C1CCCCC1 | 1.74 | -0.58
16 | CC[C@H](C)[C@H](NC(=O)[C@H](CCC(=O)O)NC(=O)[C@@H](NC(C)=O)C(C)C)C(=O)N[C@H](C=O)CC(=O)O (Ac-VEID-aldehyde) | -1.43 | -0.3
17 | C[C@@H]1CN(Cc2ncccn2)C[C@H]1c1nc2c(cnn2C2CCOCC2)c(=O)[nH]1 | 0.83 | 0.17
18 | O=C(NCC1CCOCC1)c1n[nH]cc1NC(=O)c1c(F)cccc1F | -1.34 | 0.69
19 | CC(C)c1cc(C(=O)N2Cc3ccc(CN4CCN(C)CC4)cc3C2)c(O)cc1O | -1.35 | 0.44
20 | Cc1cc(Cl)cc(-c2c3sc(CN4C(=O)C5C(C4=O)C5(C)C)cc3nn2C)c1OC1CCNCC1 (stereo not drawn) | 0.52 | -0.72

Row | SMILES | ΔTm (Peregrin (Homo sapiens)) [°C] | ΔTm [1] [°C]
21 | N[C@H](C(=O)O)[C@H](OCc1cccc(NC(=O)c2ccc(C(F)(F)F)cc2)c1)C(=O)O | 0.9 | -0.22
22 | O=C1CCc2cc(OCCCCc3nnnn3C3CCCCC3)ccc2N1 | -1.16 | -0.38
23 | CC(C)Cn1c(=O)n(C)c(=O)c2c(C(=O)N3CC[C@@H](O)C3)c(Cc3ccnc4ccccc34)sc21 | 0.74 | 0.61
24 | CCN(c1cc(C#CCN2CCOCC2)cc(C(=O)NCc2c(C)cc(C)[nH]c2=O)c1C)[C@H]1CC[C@H](N(C)CCOC)CC1 | -1.63 | 0.42
25 | O=C1C(P(=O)(O)O)CC(O)N1O (stereo not drawn) | 1.52 | -0.05
26 | COC[C@@H]1CCCN1S(=O)(=O)c1ccc2c(c1)C(=O)C(=O)N2 | -0.85 | 0.48
27 | Cc1nc2ccccn2c1C(=O)CN1CCN(c2ccc(F)cn2)CC1 | 0.49 | -0.08
28 | N[C@](CCCCB(O)O)(CCN1CCCCC1)C(=O)O | 2.66 | 0.8
29 | CCOc1ccc(Cc2cc([C@@H]3O[C@H](CO)[C@@H](O)[C@H](O)[C@H]3O)ccc2Cl)cc1 | -0.19 | 0.15
30 | CS(=O)(=O)c1ccc(Oc2cc(F)cc(C#N)c2)c2c1[C@H](O)C(F)(F)C2 | 1.71 | -0.21
31 | COc1cc2c(NC3CCN(CC4CCCCC4)CC3)nc(N3CCCN(C(C)C)CC3)nc2cc1OCCCN1CCCCC1 | -0.98 | 0.65
32 | CCNC(=O)c1cc2c(-c3cc(C(C)(C)O)ccc3Oc3c(C)cc(F)cc3C)cn(C)c(=O)c2[nH]1 | 1.94 | 0.28
33 | CN1CCc2c(n(Cc3ccc(C(=O)NO)cc3)c3ccccc23)C1 | -0.68 | -3.78
34 | CCC(CC)(NC(=O)C(C)C)C(=O)N[C@@H](CCCNC(=N)N)C(=O)NC1(C(=O)NC(c2ccc(F)cc2)c2ccc(F)cc2)CCCC1 | -0.95 | -3.44
35 | Nc1ncnc2c1ncn2[C@@H]1O[C@H](C(=O)N2CCN(CC(=O)Nc3cccc4c3CNC4=O)CC2)[C@@H](O)[C@H]1O | -1.21 | 0.74
36 | CN1CC[C@@H](Oc2ccc(F)c(-c3nc4c(o3)C(=O)c3ccccc3C4=O)c2Cl)C1 | 0.26 | -0.38
37 | CC1(NC(=O)COc2cccc(-c3nc4c(c(Nc5ccc(-c6cn[nH]c6)cc5)n3)CN(C3CCC3)CC4)c2)CC1 | 1.53 | -0.36
38 | CNc1nccc(CN(CC2CCNCC2)S(=O)(=O)c2ccc(S(=O)(=O)N(Cc3ccc(Cl)cc3)C3CCCC3)cc2)n1 | 1.3 | -0.24
39 | O=C(NCc1ncccc1F)c1coc(CCNCCc2nc3ccccc3[nH]2)n1 | -1.77 | -0.6
40 | C[C@H](CN[C@@H](C(=O)Nc1ccc(-c2cnn(C)c2)cn1)c1ccccc1)c1ccc(C#N)cc1 | -3.43 | 0.96

Row | SMILES | ΔTm (Peregrin (Homo sapiens)) [°C] | ΔTm [1] [°C]
41 | CNCCN(C)Cc1cn[nH]c1-c1ccc(OC2CC(OCCC3CCOCC3)C2)cc1 (stereo not drawn) | -0.84 | 0.29
42 | COc1ccc(/C=C/C(=O)NO)c(-c2ccc(-c3ccccc3)cc2)c1 | -5.43 | -5.03
43 | CN1Cc2c(Cl)cc(Cl)cc2[C@H](c2cccc(S(=O)(=O)NCCOCCOCCNC(=O)NCCCCNC(=O)NCCOCCOCCNS(=O)(=O)c3cccc([C@@H]4CN(C)Cc5c(Cl)cc(Cl)cc54)c3)c2)C1 | 0.43 | -0.42
44 | O=C(Nc1cc(C(F)F)ns1)Nc1cc(F)ncc1CO | 3.9 | -0.3
45 | CCC(NC(=O)C(CC(C)C)NC(=O)OCc1ccccc1)C(=O)C(=O)NCCCN1CCOCC1 (stereo not drawn) | -1.22 | 1.24
46 | CN(CCCN1c2ccccc2CCc2ccccc21)CC(=O)c1ccc(Cl)cc1 | -0.12 | 0.53
47 | COc1ccc(-c2ccc(-c3cn(C(=O)N4CCCCC4c4ccccc4)nn3)cc2)cc1 (stereo not drawn) | -1.62 | 0.03
48 | COC[C@H](NC(=O)c1ccn(S(C)(=O)=O)c1)C(=O)Nc1nc(-c2cccc(-c3ccn(C)n3)c2)cs1 | -0.52 | 0.09
49 | CC(C)c1cc(C(=O)N2CC[C@@H](NC(=O)C3CC3)C2)[nH]n1 | -0.47 | -0.51
50 | CS(=O)(=O)N1CCN(C(=O)c2cnc3ccc(F)cc3c2N2CCC(C#N)(c3ccccc3)CC2)CC1 | 1.45 | -4.51
51 | COc1ccc(CC[C@H]2CCC[C@@H](CCc3ccc(OC)cc3)N2C[C@@H](O)CO)cc1 | 0.69 | -0.53
52 | Nc1ccc(-c2cccs2)cc1NC(=O)c1ccc(NC=O)cc1 | 2.98 | 0.02
53 | COc1cc(Cl)ccc1C1=CN(c2ccc(-c3ccccc3OC)cc2)C2=NCCCN12 | -0.95 | -1.01
54 | O=C(N(CCc1ccccc1)C1CCCCC1)n1ncc(-c2ccc(OC(F)(F)F)cc2)n1 | 1.62 | -0.24
55 | C[C@@H]1O[C@@H](CC(=O)O)CC2=C1C(=O)c1c(O)cccc1C2=O | 0.11 | -0.89
56 | Nc1ccccc1NC(=O)c1ccc(CNc2nccc(-c3cccnc3)n2)cc1 | -0.72 | 1.02
57 | CCCc1nc(C)c2c(=O)nc(-c3cc(S(=O)(=O)N4CCN(CC)CC4)ccc3OCC)[nH]n12 | 1.02 | 0.41
58 | COc1cccc(Nc2c(C(N)=O)cnc3c(C)cc(S(=O)(=O)c4cccc(C(=O)N(C)C)c4)cc23)c1 | -1.59 | -0.11
59 | CC(C)(OCc1cc(-c2cccc(OC3CC3)c2)n(-c2ccccc2Cl)n1)C(=O)O | 0.83 | -0.52
